The results in this text go back to patent US11814652B2, “Pluripotent stem cell differentiation-promoting agent” (Oriental Yeast Co., Ltd., priority 2018, dated 2023).

The subject of one assay is iPS cells 201B7 strain. Put plainly: Flow cytometry of Brachyury/CD56 mesodermal markers, differentiation-induction in medium with β-NMN (Example 3). The format is cell-based, human. How it is done:
The effects of β-NMN on the mesodermal differentiation-induction of iPS cells were examined. The 201B7 strain was used as the iPS cells. The iPS cells were seeded in a 24-well plate coated with Matrigel (manufactured by Corning Incorporated) according to the manufacturer's protocol at 1×10^5 cells/well. The cells in the 24-well plate were cultured in a culture medium for iPS cells adjusted to have a final concentration of Rock inhibitor of 10 μM for 1 day. From the 1st day after seeding, the culture medium was replaced with a culture medium prepared by adjusting a mesoderm differentiation-inducing culture medium of “STEMdiff Trilineage Differentiation kit” (manufactured by STEMCELL Technologies) to have a final concentration of β-NMN of 0, 0.1, 0.25, or 1 mM for 1 day. […] Then, the cells were stained with a fluorescence-labeled anti-Brachyury antibody (manufactured by Merck, clone 3E4.2) and a fluorescence-labeled anti-CD56 antibody (manufactured by Biolegend, clone HCD56). After washing the stained cells, a flow cytometer “FACS caliber” (manufactured by Becton, Dickinson and Company) was used to analyze the fluorescence intensity of the anti-Brachyury antibody and the fluorescence intensity of the anti-CD56 antibody in each sample. […]
Background: A flow cytometer gives signals particle by particle.

The test system of assay [1] is Human adipose tissue-derived mesenchymal stem cells. Nature of the assay: Alizarin Red S staining after bone differentiation-induction of mesenchymal stem cells grown with β-NMN (Example 8). As to conditions: growth medium supplemented with 0.1 mM or 0.25 mM of β-NMN; 14 days after initiation of bone differentiation-induction; compared with 0 mM. The format is cell-based. From the text:
The effects of culturing in the presence of β-NMN before bone differentiation-induction of mesenchymal stern cells were examined. Human adipose tissue-derived mesenchymal stem cells (manufactured by Lonza, Cat #PT5006) were used as the mesenchymal stem cells. As a growth medium, a culture medium prepared by appropriately adding β-MNM to “MSCGM Bullet Kit” (manufactured by Lonza, Cat #PT3001) was used. As a bone differentiation-inducing culture medium, a culture medium prepared by adjusting an α-MEM culture medium to have a final concentration of fetal bovine serum of 10% by volume, a final concentration of dexamethasone of 10 nM, a final concentration of β-glycerophosphate of 10 mM, a final concentration of ascorbic acid of 50 μg/mL, and a final concentration of penicillin-streptomycin of 0.1%. The mesenchymal stem cells were seeded in a culture dish at 5×10^3 cells/cm^2 and statically cultured in a growth culture medium not containing β-MNM at 37° C., 5% by volume (CO2) for 1 day. From one day after seeding, the culture medium was replaced every 2 days with a growth culture medium adjusted to have a final concentration of β-MNM of 0, 0.1, or 0.25 mM. Further, when the cell density in the culture dish reached 80 to 90% of the confluent, the cells were passaged. […]

Take `NC(=O)c1ccc[n+]([C@@H]2O[C@H](COP(=O)([O-])O)[C@@H](O)[C@H]2O)c1` [β-NMN, β-nicotinamide mononucleotide]: the “ratio of Brachyury-positive CD56-positive cells” value with iPS cells 201B7 strain (mesodermal differentiation-inducing medium with β-NMN 0.1, 0.25 or 1 mM, 5th or 7th day, versus absence of β-NMN) is “no clear difference”; with iPS cells 201B7 strain (β-NMN added at 1 mM, versus culturing without β-NMN) it was “obviously lower”. Also, in assay [1], the “calcium deposition (Alizarin Red S staining)” value was “strongly observed”.
